Measured values as given in patent publication US12281081B2, “Herbicidal compounds” (SYNGENTA CROP PROTECTION AG, priority 2019, dated 2025).

Experiments:
[1] = tested on: Alopecurus myosuroides (ALOMY); experiment: Pre-emergence herbicidal glasshouse test; assay type: in vivo; conditions: 250 g/Ha, evaluated after 13 days
Source text: (§1) Compounds are applied at 250 g/h. […] NT=not tested.

Avena fatua (AVEFA) [2] = experiment: Pre-emergence herbicidal glasshouse test; assay type: in vivo; conditions: 250 g/Ha, evaluated after 13 days
Source text: as §1

[3] = tested on: Echinochloa crus-galli (ECHCG); experiment: Pre-emergence herbicidal glasshouse test; assay type: in vivo; conditions: 250 g/Ha, evaluated after 13 days
Source text: as §1

Lolium perenne (LOLPE) [4] = experiment: Pre-emergence herbicidal glasshouse test; assay type: in vivo; conditions: 250 g/Ha, evaluated after 13 days
Source text: as §1

Setaria faberi (SETFA) [5] = experiment: Pre-emergence herbicidal glasshouse test; assay type: in vivo; conditions: 250 g/Ha, evaluated after 13 days
Source text: as §1

[6] = tested on: Alopecurus myosuroides (ALOMY); experiment: Post-emergence herbicidal glasshouse test; assay type: in vivo; conditions: 250 g/Ha, evaluated after 13 days
Source text: as §1

Avena fatua (AVEFA) [7] = experiment: Post-emergence herbicidal glasshouse test; assay type: in vivo; conditions: 250 g/Ha, evaluated after 13 days
Source text: as §1

[8] = tested on: Echinochloa crus-galli (ECHCG); experiment: Post-emergence herbicidal glasshouse test; assay type: in vivo; conditions: 250 g/Ha, evaluated after 13 days
Source text: as §1

Lolium perenne (LOLPE) [9] = experiment: Post-emergence herbicidal glasshouse test; assay type: in vivo; conditions: 250 g/Ha, evaluated after 13 days
Source text: as §1

Setaria faberi (SETFA) [10] = experiment: Post-emergence herbicidal glasshouse test; assay type: in vivo; conditions: 250 g/Ha, evaluated after 13 days
Source text: as §1

wheat crop plants = experiment: Crop phytotoxicity comparison, post-emergence; conditions: for damage to the wheat crop compared to prior art compound C1: summary of Table B3
barley crop plants = experiment: Crop phytotoxicity comparison, post-emergence; conditions: for damage to the barley crop compared to prior art compound C1: summary of Table B3
[11] = rate 60 g/ha + safener cloquintocet-mexyl (CQC) at 50 g/ha

SMILES | percentage damage caused to the plant, ALOMY [1] | percentage damage caused to the plant, AVEFA (Avena fatua (AVEFA) [2]) | percentage damage caused to the plant, ECHCG [3] | percentage damage caused to the plant, LOLPE (Lolium perenne (LOLPE) [4]) | percentage damage caused to the plant, SETFA (Setaria faberi (SETFA) [5]) | percentage damage caused to the plant, ALOMY [6] | percentage damage caused to the plant, AVEFA (Avena fatua (AVEFA) [7]) | percentage damage caused to the plant, ECHCG [8] | percentage damage caused to the plant, LOLPE (Lolium perenne (LOLPE) [9]) | percentage damage caused to the plant, SETFA (Setaria faberi (SETFA) [10]) | % phytotoxicity observed, Wheat (wheat crop plants; rate 30 g/ha) | % phytotoxicity observed, Wheat (wheat crop plants; rate 60 g/ha) | % phytotoxicity observed, Wheat (wheat crop plants; [11]) | damage to the wheat crop compared to prior art compound C1 (wheat crop plants) | % phytotoxicity observed, Barley (barley crop plants; rate 30 g/ha) | % phytotoxicity observed, Barley (barley crop plants; rate 60 g/ha) | damage to the barley crop compared to prior art compound C1 (barley crop plants)
CC#Cc1cc(C)c(C2C(=O)CC3(CCN(S(C)(=N)=O)CC3)CC2=O)c(C)c1 (stereo not shown) [Compound A1, 9-(2,6-dimethyl-4-prop-1-ynyl-phenyl)-3-(methylsulfonimidoyl)-3-azaspiro[5.5]undecane-8,10-dione] | 5 (5=80-100%) | 5 (5=80-100%) | 5 (5=80-100%) | 5 (5=80-100%) | 5 (5=80-100%) | 5 (5=80-100%) | 5 (5=80-100%) | 5 (5=80-100%) | 5 (5=80-100%) | 5 (5=80-100%) | 0% | 0% | 0% | significantly less damaging | 0% | 0% | significantly less damaging
CC#Cc1cc(C)c(C2C(=O)CC3(CCOCC3)CC2=O)c(C)c1 [Compound C1, reference compound] | – | – | – | – | – | – | – | – | – | – | 40% | 70% | 60% | – | 80% | 90% | –
CC#Cc1cc(C)c(C2C(=O)CC3(CCN(S(=O)(=O)NC)CC3)CC2=O)c(C)c1 [Compound A3, 9-(2,6-dimethyl-4-prop-1-ynyl-phenyl)-N-methyl-8,10-dioxo-3-azaspiro[5.5]undecane-3-sulfonamide] | 5 (5=80-100%) | 5 (5=80-100%) | 5 (5=80-100%) | 5 (5=80-100%) | 5 (5=80-100%) | 5 (5=80-100%) | 5 (5=80-100%) | 5 (5=80-100%) | 5 (5=80-100%) | 5 (5=80-100%) | 0% | 0% | 0% | significantly less damaging | 0% | 0% | significantly less damaging
CC#Cc1cc(C)c(C2=C(OC(=O)OC)CC3(CCN(S(=O)(=O)NC)CC3)CC2=O)c(C)c1 [Compound P2, [9-(2,6-dimethyl-4-prop-1-ynyl-phenyl)-3-(methylsulfamoyl)-10-oxo-3-azaspiro[5.5]undec-8-en-8-yl] methyl carbonate] | 5 (5=80-100%) | 5 (5=80-100%) | 5 (5=80-100%) | 5 (5=80-100%) | 5 (5=80-100%) | 5 (5=80-100%) | 5 (5=80-100%) | 5 (5=80-100%) | 5 (5=80-100%) | 5 (5=80-100%) | – | – | – | – | – | – | –
